Several values for one entry are separate records, joined by “and”; a condition that tells them apart may be missing. Equal values may be shown once.
Test: Phase 1 Stage 1 clinical pharmacokinetics of SC ZA co-administered with rHuPH20
Format: in vivo, human
Design: key to Mean Conc. / Median Conc.: BLQ = blow limit for quantitation
Settings: serum; for Zoledronic Acid Concentration: individual subjects; for Mean Conc. / Median Conc.: n=3
Protocol: A pharmacokinetic study of zoledronic acid (ZA) co-administered with rHuPH20 in human subjects was conducted. The primary objective of the study was to determine the bioavailability of zoledronic acid dosed via subcutaneous (SC) co-administration with human recombinant hyaluronidase PH20 (rHuPH20). […] The patients were administered the prescribed dosage formulations as follows: Cohorts 1-5 were administered a single subcutaneous infusion in a dosage volume of 100 ml at a rate of 3 mL/min. […] The dosing solution is administered via needle or catheter into the SC space of the left anterior thigh (midway between the anterior iliac crest and the cephalad border of the patella). For cohorts 1-5, the dosing solutions were administered by a controlled rate infusion pump at approximately 3 mL/minute. […] The dosing solutions were administered by syringe push bolus injection. […] Serum concentration of ZA was determined using a qualified LC-MS-MS assay after derivatization with diazomethane (Zhu, L S et al. (2006) Rapid Commun. […] The assay range was from 2.0 to 400 ng/mL with a lower limit of quantitation (LLOQ) at 2.0 ng/mL. […] Non-compartmental analysis was used for derivation of primary and secondary pharmacokinetic (PK) parameters. […] Summary statistics (mean, standard deviation, and median) were calculated using JMP or Microsoft Excel.

[1] = ZA 0.5 mg SC infusion + 24000 Units rHuPH20, 24 h post infusion
[2] = ZA 0.5 mg SC infusion + 24000 Units rHuPH20, 48 h post infusion
[3] = ZA 1 mg SC infusion + 24000 Units rHuPH20, 48 h post infusion

## O=P(O)(O)C(O)(Cn1ccnc1)P(=O)(O)O [ZA, 1-hydroxy-2-(1H-imidazol-1-yl)ethylidene-1,1-bisphosphonic acid]
ZA 0.5 mg SC infusion + 24000 Units rHuPH20, 10 min post infusion, listed as Zoledronic Acid
  Zoledronic Acid Concentration: 16.80 ng/mL
ZA 0.5 mg SC infusion + 24000 Units rHuPH20, 0.5 h post infusion, listed as Zoledronic Acid
  Zoledronic Acid Concentration: 16.50 ng/mL
ZA 0.5 mg SC infusion + 24000 Units rHuPH20, 1 h post infusion, listed as Zoledronic Acid
  Zoledronic Acid Concentration: 15.00 ng/mL
[1]
  Zoledronic Acid Concentration: BLQ < (0.500) ng/mL
  Mean Conc.: BLQ
  Median Conc.: BLQ
[2]
  Zoledronic Acid Concentration: BLQ < (0.500) ng/mL
  Mean Conc.: BLQ
  Median Conc.: BLQ
ZA 1 mg SC infusion + 24000 Units rHuPH20, 0 h post infusion, listed as Zoledronic Acid
  Zoledronic Acid Concentration: 15.30 ng/mL
ZA 1 mg SC infusion + 24000 Units rHuPH20, 10 min post infusion, listed as Zoledronic Acid
  Zoledronic Acid Concentration: 25.00 ng/mL
ZA 1 mg SC infusion + 24000 Units rHuPH20, 0.5 h post infusion, listed as Zoledronic Acid
  Zoledronic Acid Concentration: 23.00 ng/mL
ZA 1 mg SC infusion + 24000 Units rHuPH20, 1 h post infusion, listed as Zoledronic Acid
  Zoledronic Acid Concentration: 19.40 ng/mL
ZA 1 mg SC infusion + 24000 Units rHuPH20, 2 h post infusion, listed as Zoledronic Acid
  Zoledronic Acid Concentration: 17.00 ng/mL
ZA 1 mg SC infusion + 24000 Units rHuPH20, 4 h post infusion, listed as Zoledronic Acid
  Zoledronic Acid Concentration: 10.20 ng/mL
ZA 1 mg SC infusion + 24000 Units rHuPH20, 6 h post infusion, listed as Zoledronic Acid
  Zoledronic Acid Concentration: 5.47 ng/mL
ZA 1 mg SC infusion + 24000 Units rHuPH20, 8 h post infusion, listed as Zoledronic Acid
  Zoledronic Acid Concentration: 3.17 ng/mL
ZA 1 mg SC infusion + 24000 Units rHuPH20, 12 h post infusion, listed as Zoledronic Acid
  Zoledronic Acid Concentration: 1.30 ng/mL
ZA 1 mg SC infusion + 24000 Units rHuPH20, 24 h post infusion, listed as Zoledronic Acid
  Zoledronic Acid Concentration: 0.51 ng/mL
[3]
  Zoledronic Acid Concentration: BLQ < (0.500) ng/mL
  Mean Conc.: BLQ
  Median Conc.: BLQ
ZA 2 mg SC infusion + 24000 Units rHuPH20, 0 h post infusion, listed as Zoledronic Acid
  Zoledronic Acid Concentration: 39.60 ng/mL and 40.80 ng/mL
ZA 2 mg SC infusion + 24000 Units rHuPH20, 10 min post infusion, listed as Zoledronic Acid
  Zoledronic Acid Concentration: 46.30 ng/mL and 46.00 ng/mL
ZA 2 mg SC infusion + 24000 Units rHuPH20, 0.5 h post infusion, listed as Zoledronic Acid
  Zoledronic Acid Concentration: 47.30 ng/mL and 48.60 ng/mL
ZA 2 mg SC infusion + 24000 Units rHuPH20, 1 h post infusion, listed as Zoledronic Acid
  Zoledronic Acid Concentration: 53.00 ng/mL and 58.70 ng/mL
ZA 2 mg SC infusion + 24000 Units rHuPH20, 2 h post infusion, listed as Zoledronic Acid
  Zoledronic Acid Concentration: 40.10 ng/mL and 42.20 ng/mL
ZA 2 mg SC infusion + 24000 Units rHuPH20, 4 h post infusion, listed as Zoledronic Acid
  Zoledronic Acid Concentration: 20.30 ng/mL and 23.00 ng/mL
ZA 2 mg SC infusion + 24000 Units rHuPH20, 6 h post infusion, listed as Zoledronic Acid
  Zoledronic Acid Concentration: 7.71 ng/mL and 8.93 ng/mL
ZA 2 mg SC infusion + 24000 Units rHuPH20, 8 h post infusion, listed as Zoledronic Acid
  Zoledronic Acid Concentration: 3.34 ng/mL and 4.81 ng/mL
ZA 2 mg SC infusion + 24000 Units rHuPH20, 12 h post infusion, listed as Zoledronic Acid
  Zoledronic Acid Concentration: 1.64 ng/mL and 2.07 ng/mL
ZA 2 mg SC infusion + 24000 Units rHuPH20, 24 h post infusion, listed as Zoledronic Acid
  Zoledronic Acid Concentration: 0.85 ng/mL and 0.98 ng/mL
ZA 2 mg SC infusion + 24000 Units rHuPH20, 48 h post infusion, listed as Zoledronic Acid
  Zoledronic Acid Concentration: BLQ < (0.500) ng/mL
ZA 2 mg SC infusion + 24000 Units rHuPH20, 48 h post infusion
  Median Conc.: BLQ
ZA 5 mg SC infusion + 24000 Units rHuPH20, 0 h post infusion, listed as Zoledronic Acid
  Zoledronic Acid Concentration: 82.30 ng/mL and 53.50 ng/mL and 130.00 ng/mL
ZA 5 mg SC infusion + 24000 Units rHuPH20, 10 min post infusion, listed as Zoledronic Acid
  Zoledronic Acid Concentration: 76.10 ng/mL and 132.00 ng/mL
ZA 5 mg SC infusion + 24000 Units rHuPH20, 0.5 h post infusion, listed as Zoledronic Acid
  Zoledronic Acid Concentration: 112.00 ng/mL and 132.00 ng/mL
ZA 5 mg SC infusion + 24000 Units rHuPH20, 1 h post infusion, listed as Zoledronic Acid
  Zoledronic Acid Concentration: 113.00 ng/mL and 116.00 ng/mL
ZA 5 mg SC infusion + 24000 Units rHuPH20, 2 h post infusion, listed as Zoledronic Acid
  Zoledronic Acid Concentration: 89.80 ng/mL and 86.50 ng/mL
ZA 5 mg SC infusion + 24000 Units rHuPH20, 4 h post infusion, listed as Zoledronic Acid
  Zoledronic Acid Concentration: 42.80 ng/mL and 61.70 ng/mL
ZA 5 mg SC infusion + 24000 Units rHuPH20, 6 h post infusion, listed as Zoledronic Acid
  Zoledronic Acid Concentration: 22.30 ng/mL and 27.80 ng/mL
ZA 5 mg SC infusion + 24000 Units rHuPH20, 8 h post infusion, listed as Zoledronic Acid
  Zoledronic Acid Concentration: 11.00 ng/mL and 12.50 ng/mL
ZA 5 mg SC infusion + 24000 Units rHuPH20, 12 h post infusion, listed as Zoledronic Acid
  Zoledronic Acid Concentration: 4.61 ng/mL and 5.00 ng/mL
ZA 5 mg SC infusion + 24000 Units rHuPH20, 24 h post infusion, listed as Zoledronic Acid
  Zoledronic Acid Concentration: 2.98 ng/mL and 2.23 ng/mL
ZA 5 mg SC infusion + 24000 Units rHuPH20, 48 h post infusion, listed as Zoledronic Acid
  Zoledronic Acid Concentration: 1.63 ng/mL and 1.74 ng/mL
